We go through three compounds from patent US20250154180A1, “CRK-LIKE (CRKL) ADAPTOR PROTEIN INHIBITORS AND METHODS OF MAKING AND USING THE SAME” (Rutgers, The State University of New Jersey, priority 2022, published 2025).

The solubility (thermodynamic) is solubility found after equilibrating the solid with the medium.

Data set [1] deals with MDA-MB-231 cells. Briefly: MTT proliferation assay, MDA-MB-231. The data set is classed as cell-based. The method, then:
(§1) MTT assay—The MTT assay was used to detect cell proliferation. Briefly, cells were plated in a 96-well plate at a density of 50,000 cells/well in 200 μl of culture medium with candidate drugs to be tested (DMSO as a negative control). The treated cells were incubated for four hours a 37° C. with a 5% CO2 incubator to allow dark crystals to form at the bottom of the wells. After culturing for 48 hours, […] of MTT reagent was added to each well and mixed gently for one minute. After aspirating the culture medium from each well, 100 μl of crystal dissolving solution was added to each well and incubated for 10 minutes at RT. The signal was quantified by measuring the absorbance in each sample at 570 nm using a microplate reader.
(§2) Compound II is referred to as “NC5-SO2F” in FIGS. 7A-7C.
Cell proliferation was first determined by MTT assay as confirmation. […] CrkL is known to mediate the activation of both Raf/ERK and PI3K pathways. So, proteins that relate to these two pathways were utilized.

Another data set deals with PDAC cells BXPC3. The experiment in a line: MTT assay, BXPC3. The data set is classed as cell-based. As to conditions: 5 uM. The method, then:
as §1, §2
For orientation: Tetrazolium assays rely on reduction of a dye to a coloured formazan, in cell work by metabolically active cells.

Data set [2] has as its system BXPC3 cells. The experiment in a line: Propidium iodide staining, BXPC3. It is filed as cell-based. As to conditions: various concentrations.
Excerpt: as §2

In data set [3] the test system is MDA-MB-231 cells. The experiment in a line: XTT cell viability, MDA-MB-231. As to conditions: 24 and 48 hours. The data set is classed as cell-based. On the procedure: (§3) FIGS. 8A-8C show results using MDA-MB-231 cells (FIG. 8A) or BXPC3 cells (FIG. 8B), wherein the cells were treated with 5 μM of NC5, Compound III (referred to as “NC5-140-1” in FIGS. 8A-8C), and Compound I (referred to as “NC5-140-2” in FIGS. 8A-8C) for 24-48 hours, wherein the XTT assay was used to determine cell viability. The symbol indicates the significance of NC5 vs. Compounds I and/or III; *p<0.05. Data represent mean±SEM.
(§4) Compound embodiments, compound III and compound I, were also made and evaluated. TNBC cells and PDAC cells were treated with a serial dose of original NC5 and modified NC5 derivatives for 24 and 48 hours. The cell viability will be measured by XTT assay. […] Compound III is referred to as “NC5-140-1” and Compound I is referred to as “NC5-140-2” in FIGS. 8A-8C.

In data set [4] the test system is BXPC3 cells. Briefly: XTT cell viability, BXPC3. As to conditions: 24 and 48 hours. The data set is classed as cell-based. The method, then:
as §3, §4

The next data set has as its system Sk-Hep1 cells. Briefly: Growth inhibition of Sk-Hep1 cells (cell culture images). The data set is classed as cell-based. The following applies: 5 μM, 24 hours.
In another data set the test system is Sk-Hep1 tumor. Briefly: HCC Sk-Hep1 xenograft model. The following applies: four-group study, 5.0 μg/g oral gavage. The data set is classed as in vivo, NSG mice. From the text: To further test whether the tumor growth inhibition effect of NC5 applied to other solid tumors, the HCC-Sk-Hep1cell line and PDAC-BXPC3 cell line xenograft models were used. Subcutaneous injection of 1.5×10^6 SK-Hep1 or BXPC3 cells in NSG mice, Six-ten days after tumor cell injection, the palpable tumor in NSG mice was confirmed.
To test the effects of the disclosed compounds on the xenograft mouse models, the HCC-Sk-Hep1 cell line xenograft model in NSG mice and 4T1-Luc orthotopic syngeneic breast tumor model in Balb/c mice was used. After confirming the palpable tumor in NSG or Balb/c mice. […] Compound III is referred to as “NC5-140-1” and Compound I is referred to as “NC5-140-2” in FIGS. 11A-11C.

Another data set is described as follows: Thermodynamic solubility. The data set is classed as physicochemical. The following applies: thermodynamic from solid. The method, then: In this example, solubility measurement assays were performed using a phosphate buffer (also referred to as “PB”) system and a water system to evaluate thermodynamic solubility. The PB system was at a pH of 7.4 to mimic in vivo environments. For the PB system, the values were determined to be NC5: Thermodynamic Solubility pH=7.4<0.42 μg/mL; Compound III: Thermodynamic Solubility pH=7.4<0.48 μg/mL; and Compound I: Thermodynamic Solubility pH=7.4<0.48 μg/mL. Results for the water assay were as follows: NC5: Thermodynamic Solubility Water<0.42 μg/mL; Compound III: Thermodynamic Solubility Water<0.48 μg/mL; and Compound I: Thermodynamic Solubility Water<0.48 μg/mL.

Data set [5] deals with CrkL (phosphorylation at Y207 by Ab1). Briefly: AlphaScreen of Ab1 phosphorylation of CrkL at Y207. The data set is classed as biochemical. The following applies: compared to DMSO; positive control in the five libraries. In general terms: Bead proximity is the source of the signal in Alpha formats.
The target in the next data set is CrkL (Homo sapiens, UniProt P46109). The data set is classed as biochemical. From the text:
Single-molecule Fluorescence Resonance Energy Transfer (smFRET)—Single-molecule Fluorescence Resonance Energy Transfer (smFRET) was applied to monitor conformations of single molecules. CrkL has two cysteines (a relatively rare amino acid), one in its SH2 and another in SH3C domains. CrkL was mixed with a mixture of equal amounts of Alexa555-maleimide and Alexa647-maleimide (Invitrogen, USA) (10× over protein concentration) to randomly label the two cysteines. The labeled protein was purified from an unreacted dye by gel filtration. Molecules with exactly one donor and acceptor are identified in single-molecule data analysis and used for further analysis. […] The FRET change between non-phosphorylated CrkL and phosphorylated CrkL was measured. The dye-labeled protein was used in in vitro kinase assays with different drugs treatments as described above. smFRET measurements were performed with a prism-type total internal refection microscope (TIRF) where FRET efficiency is calculated from measured donor and acceptor intensities (Id and Ia, respectively) by FRET=Ia/(Id+Ia), as described previously. To surface immobilize 6×His tagged CrkL, the protein was added to the biotinylated 6×His antibody (Thermo Scientific Cat #: MA1-80087) bound to streptavidin, which was adsorbed to a quartz slide. A lipid bilayer was used to passivate the quartz surface. Phosphorylation was performed on the immobilized Crk in situ.
In intramolecular smFRET, non-radiative energy transfer occurs when two fluorophores attached to different parts of one molecule move close together. […] A cysteine-maleimide-based chemistry was used to label both CrkL and mutant (non-phosphorylatable) CrkL-Y207F. CrkL has a cysteine (a relatively rare amino acid) in its SH2 (labeled with AlexaFluor555) and SH3C (labeled with AlexaFluor647). […] Western Blot (WB) and immunoprecipitation (IP) was used to verify that labeled proteins retain the same gross functional properties as wild-type CrkL (e.g., are phosphorylatable and capable of binding SH2 and SH3 ligands). Briefly, site-specific labeled CrkL was mixed with Ab1 in the presence of Mg^2+ and ATP. A single AlphaScreen-identified candidate inhibitor was then added per assay.

Data set [6] concerns IL-2 production from human PBMCs. Briefly: IL-2 ELISA, PBMCs. It is filed as cell-based. The method, then: IL-2 ELISA—IL-2 in vitro enzyme-linked immunosorbent assay (ELISA) was used to measure human IL-2 productions. This assay was conducted per the user manual from the kit. In brief, human PBMCs were cultured in R10 medium with 0.5 μg/ml PHA. Then, 100 μl of the standard and sample was added to each well and incubated at 4° C. overnight. A prepared biotin antibody (100 μl) was added to each well and incubated for 1 hour at room temperature. Then, 100 μl prepared streptavidin solution was added and incubated for 45 minutes at room temperature. TMB one-step substrate reagent (100 μl) was then added to each well and incubated for 30 minutes at room temperature. Stop solution (50 μl) was then added to each well, and the results were quantified at 450 nm by Infinite M1000 Pro Plate Reader (Tecan, Switzerland) immediately.
Previous studies have shown that phosphorylated CrkL inhibits immune cell functions. It was then evaluated whether a pCrkL inhibitor could restore immune cell functions. To test this, the production of IL-2 from human PBMCs treated with different concentrations of Pomiferin was quantitated. Phytohemagglutinin (PHA) was used to stimulate the secretion of IL-2 as a positive control group. […] Similar results were obtained from the third donor (FIG. 5B, lower panel).
A general note: ELISA stands for enzyme-linked immunosorbent assay.

The nature of data set [7]: Mouse toxicity assays (serum ALT, AST, BUN, creatinine). As to conditions: at the indicated dosages. It is filed as in vivo, mice. The method, then: Three mice were treated in each group. Blood samples were collected from every mouse in pre-treatment and post-treatment (20 days), and serum was obtained for alanine aminotransferase (ALT, SGPT, FIG. 12A), aspartate aminotransferase (AST, SGOT, FIG. 12B), blood urea nitrogen (BUN, FIG. 12C), and creatinine (FIG. 12D) tests to monitor liver and kidney toxicity. The normal Reference Ranges for ALT is 17-77 IU/L; AST is 54-298 IU/L; BUN is 18.5-33.3 mg/dL; Cr is 0-0.40 mg/dL.
Mouse toxicity assays—Blood was collected from the submandibular facial vein following IACUC guidelines (CMP, Houston Methodist Research Institute and Rutgers University) before and 20-day after the drug treatment. The Department of Veterinary Medicine & Surgery, MD Anderson Cancer Center, performed the clinical biochemistry and pharmacokinetics tests. Blood serum chemistry analysis included alanine transaminase (ALT), aspartate transaminase (AST), blood urea nitrogen (BUN), and creatinine level measurements.
Alanine aminotransferase (ALT, SGPT), aspartate aminotransferase (AST, SGOT), blood urea nitrogen (BUN), and creatinine levels were examined to determine liver and kidney toxicity of Pomiferin treatments in vivo. […] Nevertheless, these changes have no physiological significance because ALT, AST and BUN levels in all mice were within normal mouse reference ranges. […]

Entries after “also recorded” stand apart in the source; their conditions may differ. Where a name gives a salt, the structure may show the parent alone. Read-outs that look alike come from different tables or passages of the source.

Chain of CrkL (P46109 whole entry, the tested form may be a part): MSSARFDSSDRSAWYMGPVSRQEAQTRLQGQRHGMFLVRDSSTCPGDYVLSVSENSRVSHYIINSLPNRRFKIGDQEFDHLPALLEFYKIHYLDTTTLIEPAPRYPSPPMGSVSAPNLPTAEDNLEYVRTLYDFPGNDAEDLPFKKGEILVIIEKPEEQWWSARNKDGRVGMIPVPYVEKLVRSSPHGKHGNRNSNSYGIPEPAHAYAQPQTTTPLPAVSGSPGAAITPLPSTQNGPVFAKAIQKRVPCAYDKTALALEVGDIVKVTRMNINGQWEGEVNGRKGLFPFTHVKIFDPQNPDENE

Take `CC(C)=CCc1c2c(c3occ(-c4ccc5c(c4)OS(=O)(=O)O5)c(=O)c3c1OS(=O)(=O)F)C=CC(C)(C)O2` [Compound II]: in the data set with MDA-MB-231 cells [1] (5 μM), the “toxicity compared with NC5 (MTT viability)” value is “increased toxicity”. In addition, the “killing effect compared with NC5 (MTT)” value in the data set on MDA-MB-231 cells [1] (different concentrations) was “comparable killing effect as NC5”. In addition, the “killing effect / toxicity compared with NC5 (MTT)” value with PDAC cells BXPC3 was “stronger killing effect than NC5; also recorded: increased toxicity”. The “killing effect by propidium iodide staining” value with BXPC3 cells [2] is “killing effect was further confirmed”.

For the compound `CC(C)=CCc1c2c(c(O)c3c(=O)c(-c4ccc5c(c4)OS(=O)(=O)O5)coc13)C=CC(C)(C)O2` [Compound I], the “toxic effect compared with NC5 (XTT viability)” value with MDA-MB-231 cells [3] is on record as “comparable toxic effect as NC5”; in the data set with BXPC3 cells [4] it was “better toxic effect than NC5”. For the same compound, the “toxic effect compared with NC5 (growth inhibition)” value with Sk-Hep1 cells is on record as “better toxic effect than NC5”. Further, the tumor growth result in the data set with Sk-Hep1 tumor is reported as “inhibit tumor growth”. The compound also came in with a median survival in the data set on Sk-Hep1 tumor (vehicle 26 days) of 28.5 days. Further, the thermodynamic solubility was less than 0.48 µg/mL in “Thermodynamic solubility” (aqueous buffer, phosphate buffer (PB) system, pH 7.4, read-out: Thermodynamic Solubility pH=7.4) and less than 0.48 µg/mL in “Thermodynamic solubility” (water system, read-out: Thermodynamic Solubility Water).

In the case of `Cc1ccc(NC(=O)c2ccc(CN3CCN(C)CC3)cc2)cc1Nc1nccc(-c2cccnc2)n1` [Gleevec, imatinib mesylate], the Alpha signal decrease in data set [5] is on record as 80-90%. For the same compound, the “inhibition of the higher FRET caused by Ab1 (pCrkL)” value on CrkL (CrkL + Ab1, Mg2+ and ATP) is recorded as “inhibited”. The compound further showed an FRET signal at CrkL (CrkL about 0.4, CrkL+Ab1 about 0.6) of 0.4. The IL2 secretion result in [6] (PBMCs from three healthy donors, treated overnight) is on record as “did not inhibit IL2 secretion”. For the same compound, the IL-2 production entry in data set [6] (first donor, compared to DMSO) is “decreased IL-2 production”. For the same compound, the “damage to the liver and kidneys” value in data set [7] is “little to no damage to the liver and kidneys”.
